The results in this text go back to patent publication US20220073536A1 (Rigel Pharmaceuticals, Inc., priority 2003, published 2022).

Assay [1] concerns cultured human mast cells (CHMC). Briefly: CHMC low cell density IgE activation: tryptase assay. The settings on record: low cell density CHMC, IgE activation, tryptase. It counts as cell-based. A digest of the protocol:
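Anti-IgE-driven degranulation of cultured human mast cells at low density, 1000–1500 cells/well, was induced over 30 min at 37 °C. It was scored by supernatant tryptase activity on a fluorogenic substrate.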

For assay [2] the test system is unchanged. Briefly: CHMC low cell density ionomycin activation: tryptase assay. It counts as cell-based. The settings on record: low cell density CHMC, tryptase, 3 pt, read-out: LD Tryptase, CHMC, Iono, 3 pt.
Where [3] appears, read: Homo sapiens, Mast cell, 3 pt, read-out: LD Tryptase, CHMC, IgE, 3 pt.
[4] abbreviates: 3 pt, read-out: LD Tryptase, CHMC, IgE, 3 pt.
Where [5] appears, read: Homo sapiens, Mast cell, 8 pt, read-out: LD Tryptase, CHMC, IgE, 8 pt.
Where [6] appears, read: 8 pt, read-out: LD Tryptase, CHMC, IgE, 8 pt.

`CC(=O)N(C)c1ccc(Nc2ncc(F)c(NC3CCCC3)n2)cc1` [Compound 1172, N2-[4-(N-Acetyl-N-methylamino)phenyl]-N4-cyclopentyl-5-fluoro-2,4-pyrimidinediamine]: the IC50 in assay [1] (setting [3]) is less than 10 µM; in assay [2] (Homo sapiens, Mast cell) it was more than 10 µM.

On to `Fc1cnc(Nc2cccc(NC3=NCCN3)c2)nc1NC1CCCC1` [Compound 1173, N4-Cyclopentyl-5-fluoro-N2-[3-(N-2-imidazolin-2-yl)aminophenyl]-2,4-pyrimidinediamine], for which the IC50 in assay [1] (setting [3]) is more than 10 µM; in assay [2] (Homo sapiens, Mast cell) it was more than 10 µM.

For the molecule `COc1cc(C(N)=O)c(Nc2ncc(F)c(NC3CCCCC3)n2)cc1OCc1ccccc1` [Compound 1175, N2-(2-Aminocarbonyl-5-benzoxy-4-methoxyphenyl)-N4-cyclohexyl-5-fluoro-2,4-pyrimidinediamine], the IC50 in assay [1] (setting [3]) was less than 10 µM; in assay [2] (Homo sapiens, Mast cell), more than 10 µM.

With `CC(=O)N(C)c1ccc(Nc2ncc(F)c(NC3CCCCC3)n2)cc1` [Compound 1176, N2-[4-(N-Acetyl-N-methylamino)phenyl]-N4-cyclohexyl-5-fluoro-2,4-pyrimidinediamine], the IC50 in assay [1] (setting [3]) is less than 10 µM; in assay [2] (Homo sapiens, Mast cell), more than 10 µM.

Turning to `Fc1cnc(Nc2cccc(NC3=NCCN3)c2)nc1NC1CCCCC1` [Compound 1177], the IC50 is more than 10 µM in assay [1] (setting [3]) and more than 10 µM in assay [2] (Homo sapiens, Mast cell).

`Fc1cnc(Nc2cccc(-c3ncco3)c2)nc1Nc1cccc(-c2ncco2)c1` [Compound 1178, N2,N4-Bis[3-(oxazol-2-yl)phenyl]-5-fluoro-2,4-pyrimidinediamine]: the IC50 in assay [1] (setting [3]) was more than 10 µM; in assay [2] (Homo sapiens, Mast cell), more than 10 µM.

In the case of `CN(c1nc(Nc2cccc(-c3ncco3)c2)ncc1F)C1CCC1` [Compound 1179, N4-Cyclobutyl-5-fluoro-N4-methyl-N2-[3-(oxazol-2-yl)phenyl]-2,4-pyrimidinediamine], the IC50 is less than 10 µM in assay [1] (setting [3]) and more than 10 µM in assay [2] (Homo sapiens, Mast cell).

Turning to `Fc1cnc(Nc2ccc(N3CCOCC3)cc2)nc1N[C@H]1CCN(Cc2ccccc2)C1` [Compound 1180, (S)-N4-(1 -Benzylpyrrolidin-3-yl)-5-fluoro-N2-(4-morpholinophenyl)-2,4-pyrimidinediamine], the IC50 in assay [1] (setting [3]) is less than 10 µM; in assay [2] (Homo sapiens, Mast cell), more than 10 µM.

On to `CC(=O)N1CCN(c2ccc(Nc3ncc(F)c(N[C@H]4CCN(Cc5ccccc5)C4)n3)cc2)CC1` [Compound 1181, (S)-N2-[4-(4-Acetylpiperazino)phenyl]-N4-(1-benzylpyrrolidin-3-yl)-5-fluoro-2,4-pyrimidinediamine], for which the IC50 in assay [1] (setting [3]) is less than 10 µM; in assay [2] (Homo sapiens, Mast cell), more than 10 µM.

With `CN1CCN(c2ccc(Nc3ncc(F)c(N[C@H]4CCN(Cc5ccccc5)C4)n3)cc2)CC1` [Compound 1182], the IC50 in assay [1] (setting [3]) is more than 10 µM; in assay [2] (Homo sapiens, Mast cell) it was more than 10 µM.

With `CCOC(=O)N1CCN(c2ccc(Nc3ncc(F)c(N[C@H]4CCN(Cc5ccccc5)C4)n3)cc2)CC1` [Compound 1183, (S)-N4-(1-Benzylpyrrolidin-3-yl)-N2-[4-(4-ethoxycarbonylpiperazino)phenyl]-5-fluoro-2,4-pyrimidinediamine], the IC50 in assay [1] (setting [3]) was less than 10 µM; in assay [2] (Homo sapiens, Mast cell), more than 10 µM.

Regarding `Fc1cnc(Nc2cccc(N3CCOCC3)c2)nc1N[C@H]1CCN(Cc2ccccc2)C1` [Compound 1184], the IC50 is less than 10 µM in assay [1] (setting [3]) and more than 10 µM in assay [2] (Homo sapiens, Mast cell).

Turning to `CC(=O)N1CCN(c2cccc(Nc3ncc(F)c(N[C@H]4CCN(Cc5ccccc5)C4)n3)c2)CC1` [Compound 1185, (S)-N2-[3-(4-Acetylpiperazino)phenyl]-N4-(benzylpyrrolidin-3-yl)-5-fluoro-2,4-pyrimidinediamine], the IC50 in assay [1] (setting [4]) was less than 10 µM; in assay [2], more than 10 µM.

For `CN1CCN(c2cccc(Nc3ncc(F)c(N[C@H]4CCN(Cc5ccccc5)C4)n3)c2)CC1` [Compound 1186], the IC50 in assay [1] (setting [3]) was less than 10 µM; in assay [2] (Homo sapiens, Mast cell), more than 10 µM.

For the molecule `CCOC(=O)N1CCN(c2cccc(Nc3ncc(F)c(N[C@H]4CCN(Cc5ccccc5)C4)n3)c2)CC1` [Compound 1187, (S)-N4-(1-Benzylpyrrolidin-3-yl)-N2-[3-(4-ethoxycarbonylpiperazino)phenyl]-5-fluoro-2,4-pyrimidinediamine], the IC50 in assay [1] (setting [3]) is less than 10 µM; in assay [2] (Homo sapiens, Mast cell), more than 10 µM.

Consider `CC1(C)Oc2ccc(Nc3nc(Nc4cccc(-c5ncco5)c4)ncc3F)cc2NC1=O` [Compound 1281], for which the IC50 was less than 10 µM in assay [1] (setting [3]); less than 10 µM in assay [1] (setting [5]); more than 10 µM in assay [2] (Homo sapiens, Mast cell).

For the molecule `C[C@@H]1Oc2ccc(Nc3nc(Nc4cccc(-c5ncco5)c4)ncc3F)cc2NC1=O` [Compound 1282], the IC50 in assay [1] (setting [3]) was less than 10 µM; in assay [1] (setting [5]), less than 10 µM; in assay [2] (Homo sapiens, Mast cell), more than 10 µM.

Consider `C[C@H]1Oc2ccc(Nc3nc(Nc4cccc(-c5ncco5)c4)ncc3F)cc2NC1=O` [Compound 1283], for which the IC50 in assay [1] (setting [3]) was less than 10 µM; in assay [1] (setting [5]), less than 10 µM; in assay [2] (Homo sapiens, Mast cell), more than 10 µM.

Regarding `O=C1Nc2cc(Nc3nc(Nc4cccc(-c5ncco5)c4)ncc3F)ccc2OC1(F)F` [Compound 1284], the IC50 in assay [1] (setting [3]) is less than 10 µM; in assay [1] (setting [5]) it was less than 10 µM; in assay [2] (Homo sapiens, Mast cell), more than 10 µM.

As for `NC1CCOc2ccc(Nc3nc(Nc4cccc(-c5ncco5)c4)ncc3F)cc21` (stereo not shown) [Compound 1285], the IC50 was less than 10 µM in assay [1] (setting [3]); less than 10 µM in assay [1] (setting [5]); more than 10 µM in assay [2] (Homo sapiens, Mast cell).

On to `CC(C)(C)OC(=O)NC1CCOc2ccc(Nc3nc(Nc4cccc(-c5cnco5)c4)ncc3F)cc21` (stereo not shown) [Compound 1287, N4-(4-N-tert-Butoxycarbonylamino-3,4-dihydro-2H-1-benzopyran-6-yl)-5-fluoro-N2-[3-(oxazol-5-yl)phenyl]-2,4-pyrimidinediamine], for which the figures for the IC50 in assay [1] (setting [4]) and in assay [2] were less than 10 µM and more than 10 µM, respectively.

Consider `CC(C)(C)OC(=O)NC1CCOc2ccc(Nc3nc(Nc4ccc(-c5cnco5)cc4)ncc3F)cc21` (stereo not shown) [Compound 1288, N4-(4-N-tert-Butoxycarbonylamino-3,4-dihydro-2H-1-benzopyran-6-yl)-5-fluoro-N2-[4-(oxazol-5-yl)phenyl]-2,4-pyrimidinediamine], for which the IC50 in assay [1] (setting [4]), in assay [1] (setting [6]) and in assay [2] was less than 10 µM in each case.

In the case of `CC(C)(C)OC(=O)NC1CCOc2ccc(Nc3nc(Nc4ccc(-c5ncco5)cc4)ncc3F)cc21` (stereo not shown) [Compound 1289, N4-(4-N-tert-Butoxycarbonylamino-3,4-dihydro-2H-1-benzopyran-6-yl)-5-fluoro-N2-[4-(oxazol-2-yl)phenyl]-2,4-pyrimidinediamine], the IC50 in assay [1] (setting [4]) and in assay [2] was less than 10 µM throughout.

Turning to `OC1CCOc2ccc(Nc3nc(Nc4ccc(-c5ncco5)cc4)ncc3F)cc21` (stereo not shown) [Compound 1291, 5-Fluoro-N4-(4-hydroxy-3,4-dihydro-2H-1-benzopyran-6-yl)-N2-[4-(oxazol-2-yl)phenyl]-2,4-pyrimidinediamine], the IC50 in assay [1] (setting [3]) was less than 10 µM; in assay [1] (setting [5]), less than 10 µM; in assay [2] (Homo sapiens, Mast cell), more than 10 µM.

Consider `CNC(=O)CNC(=O)c1ccc(Nc2ncc(F)c(Nc3ccc4c(c3)NC(=O)C(C)(C)O4)n2)cc1` [Compound 1295, N4-(2,2-Dimethyl-3-oxo-4H-benz[1,4]oxazin-6-yl)-5-fluoro-N2-[4-[N-(N-methylamino)carbonylmethylene]aminocarbonylphenyl]-2,4-pyrimidinediamine], for which the IC50 in assay [1] (setting [4]) was less than 10 µM; in assay [1] (setting [6]), less than 10 µM; in assay [2] it was more than 10 µM.
